Assay results taken from US8178506B2, “Oligomeric compounds and compositions for use in modulation of small non-coding RNAs” (Regulus Therapeutics Inc., priority 2003, dated 2012).

Legend:
Format in all cases: cell-based, human
[1] = tested on: mir-143 binding site within the coding sequence of ERK5; assay: pGL3-ERK5-cds luciferase assays in HeLa cells; conditions: for luciferase expression: HeLa cells, 24 hours
Method: (§1) An expression system based on the pGL3-Control (Promega Corp., Madison Wis.) reporter vector and comprising predicted miRNA binding sites was used in transient transfections of HeLa cells with plasmids expressing oligomeric compounds mimicking miRNAs, pre-miRNAs or pri-miRNAs in order to assess the ability of these miRNA mimics to bind and regulate the expression of the luciferase reporter. The effect of increasing the copy number of the miRNA-binding site in the target was also tested by including multiple binding sites in artificial reporter constructs. It is understood that the presence of multiple miRNA-binding sites in a target can include binding sites for different miRNAs.
(§2) The following reporter plasmids were constructed by cloning the specified fragment into the XbaI site of the pGL3-control plasmid, placing the potential miRNA-binding site in the 3′-UTR of the luciferase reporter: The reporter plasmid pGL3-bulge(×3) contains three contiguous copies of the sequence ([…]; herein incorporated as SEQ ID NO: 874) which represents a sequence complementary to the mir-143 miRNA except that it is missing 2 nucleotides such that the mir-143 miRNA is presumed to adopt a bulged structure when it hybridizes to this target sequence. The pGL3-GLO1 reporter plasmid contains a DNA fragment comprising the 3′-UTR of the GLO1 sequence; this fragment was PCR-amplified using a primer beginning at nucleotide number 621 of the GLO1 sequence (GenBank Accession NM_006708.1, SEQ ID NO: 821) and the downstream primer hybridizing to the poly A tail. The pGL3-PP2A reporter plasmid contains a DNA fragment comprising the 3′-UTR of the PP2A gene; this fragment was PCR-amplified using a primer beginning at nucleotide number 921 of the PP2A sequence (GenBank Accession NM_004156.1) and the downstream primer hybridizing to the poly A tail. The reporter plasmid pGL3-ERK5-3′-UTR(×1) contains one copy of the sequence […] (herein incorporated as SEQ ID NO: 875), found in the 3′-UTR of ERK5 and predicted by Lewis, et al. to be bound by the mir-143 miRNA, and the reporter plasmid pGL3-ERK5-3′UTR(×3) has three contiguous copies of this sequence. The reporter plasmid pGL3-ERK5-3′UTR(ext) contains one copy of the sequence […] (herein incorporated as SEQ ID NO: 876), which includes an additional ten nucleotides at either end of the mir-143 binding site in 3′-UTR of ERK5 predicted by Lewis, et al. (Lewis et al., Cell, 2003, 115, 787-798). The plasmids pGL3-ERK5-cds(×1), pGL3-ERK5-cds(×2), pGL3-ERK5-cds(×3), and pGL3-ERK5-cds(×5) contain one, two, three or five contiguous copies, respectively, of the novel mir-143 binding site ([…]; herein incorporated as SEQ ID NO: 877) we identified within the coding sequence of ERK5. The unmodified pGL3-Control luciferase reporter vector was used as a negative control, and the pGL3-mir-143 sensor reporter plasmid was used as a positive control.
(§3) HeLa cells were routinely cultured and passaged as described. In some embodiments, HeLa cells were transfected with 0.05 μg of the relevant pGL3-sensor plasmid and 0.01 μg pRL-CMV plasmid. Additionally, in some embodiments, cells were treated at various dosages (11 nM, 33 nM, and 100 nM) with the following oligomeric compound mimics: 1) ds-mir-143, or 2) ds-Control as described. In accordance with methods described in Example 12, a luciferase assay was performed 24-hours after transfection. The results, shown in Tables 40 and 41, are an average of three trials. Data are presented as percent untreated control (luciferase plasmid only, not treated with oligomeric compound) luciferase expression, normalized to pRL-CMV levels.

[2] = tested on: bulged mir-143 target sequence; assay: pGL3-bulge(×3) luciferase assay in HeLa cells; conditions: 24 hours; for luciferase activity from pGL3-bulge(×3): HeLa, 11, 33 and 100 nM; for luciferase expression: HeLa cells
Method: as §1, §2, §3

[3] = tested on: mir-143 binding site in 3′-UTR of ERK5; assay: pGL3-ERK5-3′UTR luciferase assays in HeLa cells; conditions: for luciferase expression: HeLa cells, 24 hours
Method: as §1, §2, §3

ds-mir-143: double-stranded RNA of ISIS 342199 hybridized to its perfect complement ISIS 342200 (sense UGAGAUGAAGCACUGUAGCUCA; antisense UGAGCUACAGUGCUUCAUCUCA; RNA, backbone not given here)
luciferase expression from pGL3-ERK5-cds(×1) or pGL3-ERK5-cds(×2) ([1]; HeLa, 100 nM): did reduce luciferase expression | luciferase activity from pGL3-ERK5-cds(×3) or pGL3-ERK5-cds(×5) ([1]; HeLa, 11, 33 and 100 nM): reduction in luciferase activity | luciferase activity from pGL3-ERK5-cds(×5), dose response ([1]; HeLa, 11, 33 and 100 nM): dose-responsiveness | luciferase activity from pGL3-ERK5-cds(×1) or pGL3-ERK5-cds(×2) ([1]; HeLa, 11- or 33 nM): did not appear to inhibit luciferase activity | luciferase expression ([1]; Table 41, pGL3-ERK5-cds(x1), 11 nM): 101.3 percent untreated control | luciferase expression ([1]; Table 41, pGL3-ERK5-cds(x1), 33 nM): 115.4 percent untreated control | luciferase expression ([1]; Table 41, pGL3-ERK5-cds(x1), 100 nM): 77.4 percent untreated control | luciferase expression ([1]; Table 41, pGL3-ERK5-cds(x2), 11 nM): 92.7 percent untreated control | luciferase expression ([1]; Table 41, pGL3-ERK5-cds(x2), 33 nM): 113.8 percent untreated control | luciferase expression ([1]; Table 41, pGL3-ERK5-cds(x2), 100 nM): 63.6 percent untreated control | luciferase expression ([1]; Table 41, pGL3-ERK5-cds(x3), 11 nM): 73.5 percent untreated control | luciferase expression ([1]; Table 41, pGL3-ERK5-cds(x3), 33 nM): 77.9 percent untreated control | luciferase expression ([1]; Table 41, pGL3-ERK5-cds(x3), 100 nM): 49.4 percent untreated control | luciferase expression ([1]; Table 41, pGL3-ERK5-cds(x5), 11 nM): 49.4 percent untreated control | luciferase expression ([1]; Table 41, pGL3-ERK5-cds(x5), 33 nM): 44.5 percent untreated control | luciferase expression ([1]; Table 41, pGL3-ERK5-cds(x5), 100 nM): 23.9 percent untreated control | luciferase activity from pGL3-bulge(×3) [2]: dose-dependent inhibition of luciferase activity | luciferase activity from pGL3-bulge(×3) ([2]; listed as mir-143 dsRNA mimic compound): inhibited luciferase activity from the pGL3-bulge(×3) sensor plasmid in a dose-dependent manner | luciferase expression ([2]; Table 40, pGL3-bulge(x3), 11 nM): 50.7 percent untreated control | luciferase expression ([2]; Table 40, pGL3-bulge(x3), 33 nM): 35.4 percent untreated control | luciferase expression ([2]; Table 40, pGL3-bulge(x3), 100 nM): 17.2 percent untreated control | luciferase expression ([2]; Table 41, pGL3-bulge(x3), 11 nM): 36.1 percent untreated control | luciferase expression ([2]; Table 41, pGL3-bulge(x3), 33 nM): 33.9 percent untreated control | luciferase expression ([2]; Table 41, pGL3-bulge(x3), 100 nM): 22.2 percent untreated control | luciferase activity from pGL3-ERK5-3′UTR(×1) ([3]; HeLa, 11, 33 and 100 nM): did not inhibit luciferase activity | luciferase activity from pGL3-ERK5-3′UTR(×3) ([3]; HeLa, 11, 33 and 100 nM): inhibition of luciferase activity | luciferase expression ([3]; Table 40, pGL3-ERK5-3′UTR(x1), 11 nM): 81.9 percent untreated control | luciferase expression ([3]; Table 40, pGL3-ERK5-3′UTR(x1), 33 nM): 84.7 percent untreated control | luciferase expression ([3]; Table 40, pGL3-ERK5-3′UTR(x1), 100 nM): 62.2 percent untreated control | luciferase expression ([3]; Table 41, pGL3-ERK5-3′UTR(ext), 11 nM): 89.0 percent untreated control | luciferase expression ([3]; Table 41, pGL3-ERK5-3′UTR(ext), 33 nM): 106.7 percent untreated control | luciferase expression ([3]; Table 41, pGL3-ERK5-3′UTR(ext), 100 nM): 81.4 percent untreated control | luciferase expression ([3]; Table 41, pGL3-ERK5-3′UTR(x1), 11 nM): 92.2 percent untreated control | luciferase expression ([3]; Table 41, pGL3-ERK5-3′UTR(x1), 33 nM): 108.1 percent untreated control | luciferase expression ([3]; Table 41, pGL3-ERK5-3′UTR(x1), 100 nM): 81.9 percent untreated control | luciferase expression ([3]; Table 41, pGL3-ERK5-3′UTR(x3), 11 nM): 51.7 percent untreated control | luciferase expression ([3]; Table 41, pGL3-ERK5-3′UTR(x3), 33 nM): 51.0 percent untreated control | luciferase expression ([3]; Table 41, pGL3-ERK5-3′UTR(x3), 100 nM): 28.2 percent untreated control
